According to PMC7614683, “A small molecule PI3Kα activator for cardioprotection and neuroregeneration” (Nature, 2023):

Experiments:
adult rat DRG neurons = assay: Neurite outgrowth in dissociated adult rat dorsal root ganglion cultures; assay type: cell-based; settings: 72h; BYL719 500 nM with 1938 above 10^-7 M
Source text: Dissociated adult rat dorsal root ganglion (DRG) cultures were used as an in vitro model for neuroregeneration[80],[81]. DRG neurons were isolated from adult male (>250g) Wistar rats as described, with DRGs from each rat cultured separately. Following culling via schedule 1 (rising concentration of CO2), the spinal column was removed and stored in PBS on ice. Cord tissue was removed to expose the DRGs and roots in the intervertebral foramen and the DRGs removed with forceps and scalpel under a dissecting microscope (Olympus SZ40). DRGs were manually cleaned by removal of roots, capsule and capillaries with forceps and then placed in DMEM supplemented with P/S. DRGs were treated with 0.125% collagenase type IV solution at 37°C for 90 min, and then mechanically dissociated by trituration using a 1 ml pipette. The collagenase solution was removed by 2 rounds of centrifugation in complete DMEM (DMEM with 1% P/S and 10% FBS) at 400 xg for 5 min, followed by resuspension of the DRG cell pellet in complete DMEM supplemented with 0.01 mM cytosine arabinoside. DRGs were plated in 75-cm[2] flasks coated with 0.1 mg/ml poly-D-lysine and incubated at 37°C, 5% CO2. […] 9 fields per well were captured and analysed using the CSIRO Neurite Analysis 2 […] in Columbus analysis software (Perkin Elmer). […]

PI3Kα-WT A549 cells = assay: TIRF microscopy of PIP3 reporter, PI3Kα-WT A549; assay type: cell-based, human; settings: 1938, then BYL719 0.5 μM
Method: Phosphoinositide reporters used were GFP-PH-ARNO^I303Ex2 (PIP3 reporter[41]) and mCherry-cPH-TAPP1x3 (PI(3,4)P2 reporter[41]). TIRF microscopy allows selective imaging of the small cell volume, including the plasma membrane, directly adjacent to the coverslip onto which cells have been seeded. HeLa or A549 cells were seeded in Matrigel-coated (Corning #354230; diluted in Opti-MEM at 1:50) 8-well chamber slides (glass bottom, 1.55 refractive index; Thermo Fisher Scientific #155409) at a density of 5,000 cells/well. […]
Image analyses of total reporter intensities were performed with the Fiji open source image analysis package. The region of interest (ROI) corresponding to the footprint of the individual cell across time points were defined using minimal intensity projection to select only pixels present across all time points, following prior subtraction of camera noise (rolling ball method, radius = 500 pixels) and xy drift correction, intensity levels over time were measured. […] All other quantifications were performed using the open source software R/RStudio. The values plotted in Fig. 3d (iii) represent mean±SEM, following signal scaling to minimum and maximum values of the normalised fluorescence intensity for each time point (Fn(t)). […]

Cc1nc(NC(=O)N2CCC[C@H]2C(N)=O)sc1-c1ccnc(C(C)(C)C(F)(F)F)c1 [BYL719, reference compound]
neurite outgrowth (total length of neurites) (adult rat DRG neurons): partially reduced the increase in neurite outgrowth | plasma membrane PIP3 (biosensor) (PI3Kα-WT A549 cells): fully and acutely neutralized
